This is an account of results in publication PMC12278462, “Site-selective arylations of nature-inspired flavonoids or steroidal phenols via C—H or O—H activation” (Journal of Enzyme Inhibition and Medicinal Chemistry, 2025).

The subject of one data set is cancer cell lines. To be noted: cited from earlier work.
Data set [1] has as its system NIH/3T3 mouse fibroblast cell line. The experiment in a line: MTT assay, tumour selectivity on non-cancerous fibroblasts. Type of data set: cell-based. To be noted: Mus musculus; for inhibition at 10 µM: NIH3T3, 10 µM; for inhibition at 10 µM / inhibition at 30 µM: 72 h; for inhibition at 30 µM: NIH3T3, 30 µM; for IC50: NIH3T3, 72 h, read-out: calculated IC50 NIH/3T3. Here is the method: (§1) We evaluated the cytotoxic activity of the newly synthesised arylated compounds 13–17 by the MTT assay[37] on a panel of human adherent cancer cell lines. The panel included breast (MCF-7 and MDA MB-231) and cervical (HeLa, SiHa and C33A) cancer cell lines differing in receptorial or HPV status. Tumour selectivity was determined on the NIH/3T3 mouse fibroblast cell line.
(§2) Briefly, the panels of breast and cervical cancerous cell lines, differing by their receptorial and HPV status were used, precisely MCF-7 (ER, PR and HER2 positive) and MDA-MB-231 (TNBC) breast carcinoma and HeLa (HPV18+), SiHa (HPV16+), C33A (HPV-) cervical carcinoma cells. Non-cancerous NIH/3T3 mouse fibroblast cell line was used for selectivity study. MCF-7, MDA-MB-231, Hela and NIH/3T3 cell lines were purchased from ECACC (European Collection of Cell Cultures, Salisbury, UK), while SiHa and C33A from ATCC (American Tissue Culture Collection, LGC Standards GmbH, Wesel, Germany). Cells were maintained in Eagle's Minimum Essential Medium (EMEM, Capricorn Scientific GmbH, Ebsdorfergrund, Germany) supplemented with 10% heat-inactivated fetal bovine serum (FBS), 1% non-essential amino acids (NEAA), and 1% antibiotic-antimycotic mixture (penicillin–streptomycin). The cells were maintained at 37 °C in a humidified atmosphere containing 5% CO2.
(§3) For measurements cells were seeded for 96-well plates at a density of 5 000/well, except for C33A, which was seeded in 10 000cells for each well. After overnight standing cells were treated with 10 and 30 µM solutions for screening and increasing concentrations (0.1-30.0 µM) of the test compounds were used for concentration-response curves. After incubation for 72 hours under cell culturing condition 5 mg/ml MTT (3-(4,5-[…])-2,5-diphenyl-2H-tetrazolium bromide) solution was added for another 4 h. The precipitated formazan crystals were solubilized in DMSO and the absorbance was measured at 545 nm with a microplate reader (BMG Labtech, Ortenberg, Germany). Wells with untreated cells were utilized as control, and inhibition % were calculated by GraphPad Prism v 9.0 software (GraphPad Software, San Diego, CA, USA). If the growth-inhibition exceeded 70% at 30 µM concentration during the screening concentration-response curves were fitted and IC50 values were calculated by GraphPad Prism v 9.0. The experiments were performed with five parallel wells for each experimental condition and repeated at least twice.

Another data set relates to MDA-MB-231. The data set can be described thus: MTT antiproliferative assay, MDA-MB-231. To be noted: Homo sapiens; for inhibition at 10 µM: MDA-MB-231, 10 µM; for inhibition at 10 µM / inhibition at 30 µM: 72 h; for inhibition at 30 µM: MDA-MB-231, 30 µM; for IC50: MDA-MB-231, 72 h, read-out: calculated IC50 MDA-MB-231. Type of data set: cell-based, human. Here is the method: as §1, §2, §3

For a further data set, the target named is T1, 17β-HSD1 (Homo sapiens, UniProt P14061).
T1 sequence (P14061 1-328): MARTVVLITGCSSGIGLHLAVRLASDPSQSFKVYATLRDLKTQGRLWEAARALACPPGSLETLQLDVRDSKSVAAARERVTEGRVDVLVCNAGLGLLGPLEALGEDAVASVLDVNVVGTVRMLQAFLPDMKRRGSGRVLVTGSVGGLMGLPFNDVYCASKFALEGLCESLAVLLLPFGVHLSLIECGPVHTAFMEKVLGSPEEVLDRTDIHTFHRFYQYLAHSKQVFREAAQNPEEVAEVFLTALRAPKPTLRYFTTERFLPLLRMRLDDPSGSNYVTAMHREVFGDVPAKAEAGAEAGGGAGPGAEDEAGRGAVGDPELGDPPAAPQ
The data set can be described thus: 17β-HSD1 enzymatic assay (E1 to E2, LC-MS/MS). It counts as biochemical. On the procedure: The bacterial homogenate of E. coli overexpressing HSD17B1 was previously prepared as described in references ^S2,S3, and stored in aliquots at -80 °C. Before conducting experiments, aliquots were quickly thawed and diluted twice with 100 mM sodium phosphate buffer (pH 6.5; #14457, #1411007, Kemika), then kept on ice. The enzymatic assay was performed as described in ^S3. Briefly, a 1 mL enzymatic reaction mixture was prepared in 2 mL microcentrifuge tubes with the following components: 10 µL of the test inhibitor dissolved in dimethyl sulfoxide (DMSO; #276855, Sigma Aldrich) or 10 µL of DMSO for control samples, 5 µL of 14 µM substrate estrone (E1; CAS 53-16-7; #E2300-000, Steraloids), 10 µL of 10 mM NADPH (#AE14, Carl Roth) prepared in 100 mM sodium phosphate buffer, and 965 µL of 100 mM sodium phosphate buffer (pH 6.5). The reaction mixture was mixed thoroughly before adding 10 µL of bacterial homogenate. Immediately after addition, the tubes were transferred to an Eppendorf thermoshaker (#5382000031, Eppendorf) and incubated at 37 °C for 10 minutes. To stop the reaction, 60 µL of 1.26 M ascorbic acid (#A92902, Sigma Aldrich) in methanol (#34966, Honeywell/Riedel-de Haen) /acetic acid (#1.00063, Merck) (99:1, v/v) was added. The samples were then immediately processed using solid-phase extraction (SPE). The assay was repeated in three independent experiments, with each experiment performed in technical duplicate.
The preparation of samples for liquid chromatography-tandem mass spectrometry (LC-MS/MS) involved SPE. Stock solutions of E1 and 17β-estradiol (E2; CAS: 50-28-2; #142406, Steraloids) were prepared gravimetrically and dissolved in methanol (#34966, Honeywell/Riedel-de Haen). A working calibrator solution containing both steroids was then prepared by mixing appropriate volumes of the stock solutions in methanol to achieve a final concentration of 1 µg/mL for each steroid. Eight-point calibration curves (excluding zero and blank) were prepared in 100 mM sodium phosphate buffer (pH 6.5). For each 1 mL reaction mixture or calibrator, 10 µL of 100 ng/mL internal standard solution containing [2,3,4-13C3]-17β-estradiol (#719552, Sigma Aldrich) was added. Samples were mixed thoroughly and incubated at room temperature for 15 minutes.
SPE was performed using Strata X 33 µm polymeric reversed-phase columns (30 mg/mL tubes; #8B-S100-TAK, Phenomenex). The procedure involved the following steps: column conditioning with 1 mL of methanol, column equilibration with 1 mL of H₂O (#1.15333, Supelco), sample loading (1 mL sample or calibrator), column washing with 1 mL of H₂O, column drying under high vacuum for 10 minutes, and finally elution with 1 mL of methanol directly into HPLC glass vials (#702713, Macherey-Nagel GmbH/Co). The eluted samples were stored at -20 °C until LC-MS/MS analysis.

Another data set relates to SiHa. The data set can be described thus: MTT antiproliferative assay, SiHa. It counts as cell-based, human. To be noted: Homo sapiens, SiHa, 72 h; for IC50: read-out: calculated IC50 SiHa. On the procedure:
as §1, §2, §3

For another data set, the system named is HeLa. The experiment in a line: MTT antiproliferative assay, HeLa. It counts as cell-based, human. To be noted: Homo sapiens, HeLa, 72 h; for IC50: read-out: calculated IC50 HeLa. Here is the method:
as §1, §2, §3

Another data set concerns MCF-7. The data set can be described thus: MTT antiproliferative assay, MCF-7. Type of data set: cell-based, human. To be noted: Homo sapiens; for inhibition at 10 µM: MCF7, 10 µM; for inhibition at 10 µM / inhibition at 30 µM: 72 h; for inhibition at 30 µM: MCF7, 30 µM; for IC50: MCF7, 72 h, read-out: calculated IC50 MCF-7. On the procedure: as §1, §2, §3
For data set [2], the system named is human adherent cancer cell lines (HeLa, SiHa, C33A, MCF-7 and MDA-MB-231). The experiment in a line: MTT assay, whole panel of cell lines. Type of data set: cell-based. To be noted: for IC50: Homo sapiens, MTT, 72 h, range across cell lines, read-out: IC50 range over the investigated cell lines. On the procedure:
as §1, §2, §3

Another data set concerns C33A. The data set can be described thus: MTT antiproliferative assay, C33A. It counts as cell-based, human. To be noted: Homo sapiens, C-33-A, 72 h; for IC50: read-out: calculated IC50 C33A. On the procedure:
as §1, §2, §3

Data set [3] concerns HeLa cells. The experiment in a line: Cell cycle analysis by flow cytometry (propidium iodide). Type of data set: cell-based, human. To be noted: 24 and 48 h. On the procedure:
To determine the cellular DNA content of the cells, flow cytometry analysis after propidium-iodide labeling was performed. Propidium iodide is a nuclear dye intercalating between the base pairs in DNA without sequence preference. Therefore, the cells' total emitted fluorescence will depend on each cell's DNA content, which varies depending on the cell cycle phase.
Hela cells were seeded into 12-well plates at 200,000 cells/well density for the cell cycle analysis. Cells were incubated overnight prior to the treatment, then treated with 1, 2, and 3 µM solutions of 14c compound for 24 h and 48 hours. After incubation, cells were washed twice with phosphate-buffered saline (PBS) and harvested. After centrifugation at 1200 rpm, for 7 minutes, cells were washed again with 300 µl PBS and fixed in 500 µl cold 70% ethanol. Samples were stained in 300 µl dye solution containing RNaseA, TritonX-100, sodium citrate, and 0.1 mg/ml-PI in distilled water. The suspension was incubated for 20 minutes in the dark at room temperature. Cells were measured by CytoFLEX flow cytometer, recorded by CytExpert Software (Beckman Coulter INC, Brea, CA, USA). In each analysis, 20,000 events were recorded inside the FSC/SSC gate, and the percentages of the cells in the different phases of the cell cycle were determined and analyzed using ModFit LT 6.0 software.

Data set [4] relates to HeLa cells. The data set can be described thus: Mitochondrial membrane potential assay (JC-10, flow cytometry). It counts as cell-based, human. To be noted: 24 h. The source says:
JC-10 dye was used to investigate the changes in the mitochondrial membrane potential. JC-10 is a cationic dye that can pass through the cell membrane and accumulate in healthy mitochondria by forming reversible red-fluorescent aggregates. In addition, changes in membrane potential result in the failure to retain the aggregates. Therefore, the dye returns to the cytosol in green monomeric form. Mitochondrial changes may be detected by measuring the green and red fluorescent signals together.
Hela cells were seeded into 12-well plates at 200,000 cells/well density and incubated overnight. Cells were treated with 1 and 2 µM of 17c for 24 h and 10 µM of CCCP as reference compound ^S1. After the incubation, cells were collected and centrifuged at 1100 rpm for 6 minutes, then washed with PBS. After centrifugation, 300 µl dye solution (20 µM JC-10 final concentration) was added to the pellet. After 5 min incubation, cells were measured by CytoFLEX flow cytometer, recorded by CytExpert Software (Beckman Coulter INC, Brea, CA, USA) reading of red and green fluorescence on 525 and 585 channels.

For the molecule `C[C@@]12CC[C@@H]3c4ccc(OCc5cn(Cc6ccccc6)nn5)cc4CC[C@H]3[C@@H]1CCC2=O` [compound 5], in the data set with cancer cell lines, the IC50 was 600 to 900 nM and the “IC50 (cytotoxic)” value is on record as “submicromolar”.
Regarding `CN(C)C(=O)Oc1cc2c(c(-c3ccc(C(C)(C)C)cc3)c1)[C@H]1CC[C@@]3(C)C(=O)CC[C@H]3[C@@H]1CC2` [13c, 3-(N,N-dimethylcarbamoyloxy)-1-(4-tert-butylphenyl)-13α-estra-1,3,5(10)-triene-17-one], the inhibition at 10 µM was 47.3% in data set [1]; 43.8% with MDA-MB-231; 54.8% with SiHa; 53.8% in the data set with HeLa; 58.4% in the data set on MCF-7; 41.1% in the data set with C33A. Also, the inhibition at 30 µM is 97.7% in [1]; 92.9% in the data set with MDA-MB-231; 101% in the data set on SiHa; 98.6% in the data set with HeLa; 102% in the data set on MCF-7; 93.6% with C33A. The IC50 in data set [1] is 8750 nM; in the data set with MDA-MB-231, 9090 nM; in the data set on SiHa, 4740 nM; in the data set with HeLa it was 7900 nM; in the data set on MCF-7, 5700 nM; in data set [2], 4740 to 10100 nM. Moreover, the IC50 with C33A is 10100 nM. Also, the “17β-HSD1 Inhibition (% ± SD)” value on 17β-HSD1 (10 µM test concentration) and at 17β-HSD1 (100 µM test concentration) was “No inhibition” in each case.
`CCCCOC1(c2cc(=O)c3c(Oc4ccc(C(C)(C)C)cc4)cc(O)cc3o2)C=CC(=O)C=C1` [17c, 2-(1-Butoxy-4-oxocyclohexa-2,5-dienyl)-5-(4-tert-butylphenoxy)-7-hydroxy-chromen-4-one]: the inhibition at 10 µM in data set [1] was found to be 92.7%; with MDA-MB-231, 98.3%; in the data set with SiHa, 89.8%; in the data set on HeLa, 98%; in the data set with MCF-7, 98.5%; with C33A it was 97.9%. Besides, the inhibition at 30 µM in [1] worked out at 99%; in the data set on MDA-MB-231, 97%; with SiHa, 96.2%; with HeLa it was 98%; in the data set on MCF-7, 98.9%; in the data set on C33A it was 97.9%. Further, the IC50 in [1] is 930 nM; in the data set with MDA-MB-231, 420 nM; in the data set on SiHa, 640 nM; in the data set with HeLa, 470 nM; with MCF-7, 600 nM; in data set [2] it was 390 to 640 nM. Besides, in the data set with C33A, the IC50 was 390 nM. Also, in the data set with HeLa cells [3], the subG1 phase result was “substantial subG1 phase elevation”. The “proportion of the cells at G2/M phase” value with HeLa cells [3] (concentration-dependent) is reported as “significantly increases”. In addition, in the data set with HeLa cells [4] (1 and 2 µM, vs untreated controls), the “number of mitochondrial membrane-disrupted cells” value was “significantly increased”. In the data set on HeLa cells [4] (CCCP 10 µM), the “effect on mitochondrial membrane potential compared with reference agent CCCP” value is given as “more substantial than that of the applied reference agent CCCP”. Besides, the “times stronger activity than parent compound 10” value in data set [2] (ratio of IC50 values, all investigated cell lines) was 2.5–5 times.
